# “And” between values parts separate entries of the source, which are not always exact repeats. Equal entries are not always repeated. Where two headings read alike, the source gives them in different places.
# Tests used:
# [1] = test system: crude striatal synaptosomal suspensions; assay: In vitro accumulation of [3H]DA by crude striatal synaptosomal suspensions; format: biochemical, mice; details: for Km: read-out: Km(µm) of [^3H]DA uptake
# Method: (§1) All other studies are performed in C57 black mice.
# The in vitro accumulation of [^3H]DA by crude striatal synaptosomal suspensions is measured using the method of Snyder, S.H. et al., J.Pharmacol.Exp.Ther. 165, 78 (1968) with minor modifications. Briefly, crude synaptosomal suspensions are prepared by homogenizing striatal tissue in 50 vols. (w/v) of ice-cold 0.32 M sucrose, then centrifuging the homogenate for 10 minutes at 1,000 x g. […] After vortexing, tubes (except temperature blanks) are incubated in a waterbath at 37°C for five minutes, then returned to ice. Synaptosomes are harvested by filtration. Filters are rinsed twice with 5 ml aliquots of physiological saline. Radioactivity in the filters is quantified by liquid scintillation spectroscopy. Assays are performed in sextuplicate at each DA concentration, with half of the samples serving as blanks. Active uptake is defined as the difference between [^3H]DA (PM/mg tissue/5 min.) incubation at 37°C after correction for uptake at 0-4°C.
# [2] = Binding of MPTP to beef eye melanin (Scatchard analysis)
# Method: Melanin from beef eyes is prepared according to Potts, A.M., Ophthalmol. 3, 405 (1964). The pigment is finally suspended in distilled water to a concentration of 10 mg (by dry weight) per ml suspension.
# (§2) The reaction mixtures are incubated at room temperature for one hour. Reference samples contain distilled water instead of melanin.
# (§3) From the obtained data, the classes of binding sites, association constants and the binding capacity of the melanins are estimated according to Scatchard, G. et al., J. Am. Chem. Soc. 79, 12 (1957). As the molecular weight of melanin is unknown, the value for the number of binding sites is expressed as mol per mg melanin. The calculations are based on a melanin content of 2.5 mg per incubation.
# [3] = Lethality of MPTP regimens in mice; format: in vivo; details: mouse, in vivo, ip
# Method: as §1
# (§4) Approximately 20% of the mice die after the 20 mg/kg/h x 4 regimen. […]
# C57 black mice [4] = assay: Lethality of MPTP regimens in mice; format: in vivo; details: 2.5, 5 and 10 mg/kg/h x 4 MPTP regimens
# Method: as §1, §4
# [5] = Binding of MPTP to synthetic dopamine melanin (Scatchard analysis)
# Method: Synthetic dopamine melanin is prepared by autooxidation (Lyden et al., supra). The dopamine melanin suspension (in distilled water) is adjusted to contain 5 mg melanin per ml. Both pigment suspensions are stored at 2°C.
# as §2, §3
# C57 black mice [6] = assay: Striatal DA, DOPAC and HVA content in mice after MPTP; format: in vivo
# Method: Male C57BL/6J IMR mice 6-8 weeks of age are used throughout except in one experiment (see below) in which CB6F1 [(BALB/cByJ IMR x C57BL/gJ IMR)F1] mice of a similar age are used. Mice are housed five per cage in plexiglass cages with free access to food and water in a colony room maintained at 23 ± 1°C. Fluorescent lighting in the room is automatically turned on at 06.00 hours and off at 18.00 hours.
# as §1
# The mouse striatum is obtained by placing the brain on its dorsal surface and making two coronal cuts; the first at the caudal end of the olfactory bulbs, the second at the level of the optic chiasma. After placing the resulting brain slice on its rostral surface, one horizontal cut is made just below the corpus callosum and another just above the anterior commissure. Remaining parietotemporal cortex is trimmed away using the external capsule as a landmark. Septal tissue lying between the caudate nuclei is removed by cutting along the tissue planes created by the frontal horns of the lateral ventricles. Striatal tissue thus isolated weighs approximately 20 mg per animal. Immediately after dissection, tissue is wrapped in aluminum foil and stored in liquid nitrogen until assay, with the exception of tissue for uptake studies which is used immediately.
# The striatum is weighed, placed in a tube containing 1 ml of 0.4 normal perchloric acid, then homogenized with a Beckman polytron at a setting of 5 for 10 seconds. The homogenate is centrifuged at approximately 20,000 x g for 15 minutes. Concentrations of dopamine (DA), DOPAC and HVA in the supernatant are determined by reverse-phase liquid chromatography coupled with electrochemical detection according to the method of Mayer, G.S. et al., J. Chromatogr. 255, 533 (1983), with minor modifications. The mobile phase is prepared by mixing 965 ml of 0.15 M monochloroacetic acid with 35 ml of acetonitrile and adding 193 mg of sodium octyl sulfate. This solution is filtered and degassed and then 18 ml of tetrahydrofuran are added. Using this mobile phase at a flow rate of 1.3 ml/min, DA, DOPAC and HVA are resolved using a 4.6 mm x 25 cm C-18, 5 µ column (Brownless Labs). Detection and quantitation are performed using a dual series electrode detector (Coulochem Model 5100, Environmental Systems Associates, Wiggins, Mass.). Electrode potentials are set at +0.4 V (electrode 1) and -0.3 V (electrode 2). The response on electrode 2 is monitored (10 mV strip chart recorder) and used for quantitation relative to peak heights of known amounts of standards.
# [7] = target: [^3H]mazindol binding site, striatal membranes (Mus musculus, UniProt Q61327); details: three weeks after MPTP 20 mg/kg/h x 4
# Sequence of [^3H]mazindol binding site, striatal membranes (Q61327 whole entry): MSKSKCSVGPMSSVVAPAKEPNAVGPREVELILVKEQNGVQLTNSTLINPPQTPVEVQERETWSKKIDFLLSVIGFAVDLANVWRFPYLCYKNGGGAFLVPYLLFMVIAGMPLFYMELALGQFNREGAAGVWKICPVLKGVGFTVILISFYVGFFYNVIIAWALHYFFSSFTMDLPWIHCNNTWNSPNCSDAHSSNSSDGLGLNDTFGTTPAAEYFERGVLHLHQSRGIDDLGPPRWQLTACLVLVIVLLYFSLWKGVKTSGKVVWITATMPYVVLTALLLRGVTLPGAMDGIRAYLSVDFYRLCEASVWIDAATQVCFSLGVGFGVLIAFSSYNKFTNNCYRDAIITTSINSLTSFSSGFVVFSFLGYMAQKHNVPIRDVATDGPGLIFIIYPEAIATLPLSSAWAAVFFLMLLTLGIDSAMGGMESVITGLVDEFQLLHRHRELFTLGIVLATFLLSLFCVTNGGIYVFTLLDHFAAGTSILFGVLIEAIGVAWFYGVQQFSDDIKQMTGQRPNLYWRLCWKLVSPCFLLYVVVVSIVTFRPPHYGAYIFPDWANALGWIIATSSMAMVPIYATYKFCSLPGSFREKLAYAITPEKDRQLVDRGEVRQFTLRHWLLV
# Method: This group is used only for anatomical studies looking for cell loss in the substantive nigra cells (SNc). All other studies are performed in C57 black mice.
# squirrel monkeys = assay: Treatment of MPTP-induced parkinsonism in squirrel monkeys; format: in vivo; details: i.p. MPTP, three dosage schedules (Groups A-C)
# Method: Male squirrel monkeys (aged 2-3 years) are used for this study. […] All injections are intraperitoneal.
# Three different dosage schedules of MPTP are used. Monkey Group A receives four doses, 2 mg/kg each, which are given at two-hour intervals. Monkey Group B is treated over a five-day period. On day 1, a single 2 mg/kg dose is given. On day 3, two injections of 2 mg/kg each are given, six hours apart. On day 5, a 3 mg/kg dose is given followed by a 0.5 mg/kg dose four hours later (total dose: 9.5 mg/kg). Three doses of 3 mg/kg each are given to Monkey Group C, spaced at six-day intervals. Monkey Group D serves as a control.
# A similar response to the same treatment is observed on each of the next four days. Subsequently, the animal becomes less responsive to medication and is sacrificed on day 10. One monkey in Group B responds to Sinemet® (one-eighth of a 10/100 tablet) with full mobility on day 9. However, on subsequent days, […] becomes increasingly less responsive to medication, often appearing uncoordinated and shaky. This monkey is sacrificed on day 15. […] Three days later, this monkey becomes profoundly hypokinetic, develops slow respirations, and dies.
# After increased bradykinesis and frequent nodding-off are observed in the monkeys, several monkeys of Groups A, B and C are administered melanin by injection into the cerebrospinal fluid at a dose of 50 mg/kg daily. […]
# [8] = test system: monkeys (Macaca fascicularis); assay: Neurological examination of MPTP-treated monkeys with or without chloroquine pretreatment; format: in vivo; details: for Neurological Status: Spontaneous Movement: control score 10; for Neurological Status: Total (x 5.26): control 100; for Neurological Status: Reflexes / Neurological Status: Tone: control score 2; for Neurological Status: Tremor: control score 5
# Excerpt: Four animals are naive controls. […] TABLE 3
# C57 black mice [9] = assay: Silver degeneration study of striatal nerve terminals (Fink-Heimer); format: in vivo
# Method: Nerve terminal degeneration studies are performed using the method of Fink, R.P. et al., Brain Research 4, 369 (1967) (Procedure 1). This method makes possible selective silver impregnation of degenerating nerve fibers and terminals. Mice for these studies are killed under sodium pentobarbital anesthesia (40 mg/kg) by transcardial perfusion with 10% formal saline. The brain is immediately removed and stored in perfusion fluid at 0-4°C for at least one week before being sectioned on a freezing microtomee. 30 µm coronal sections are collected in 5% formal saline, then stained with silver according to Fink et al., supra.
# Some fine granular degeneration is also found in the nucleus accumbens and olfactory tubercle, but in these regions it was much less dense. No such degeneration is found in identically treated sections of control mice, or in other brain regions visible in coronal brain sections at the level of the striatum.
# [10] = test system: monkeys (Macaca fascicularis); assay: Dopamine and homovanillic acid levels in monkey brain samples (HPLC); format: in vivo; details: short-term chloroquine and MPTP; monkeys S1-3
# [11] = test system: Tyrosine hydroxylase (TH); assay: Tyrosine hydroxylase activity in monkey brain homogenate (tritium release method); format: in vivo, Macaca fascicularis; details: short-term chloroquine and MPTP; monkeys S1-3
# Method: (§5) Thirteen male monkeys (Macaca fascicularis) 5 to 8 years old, weighing 3.5 to 4.8 kg, are studied. […] Nine receive daily (0.35 mg per kg) injections of MPTP i.v. for four days. Three animals (M1-3) who received no chloroquine are the untreated controls. Six animals are pretreated with chioroquine (4 mg per kg) intramuscularly; three (S1-3) are pretreated for 12 days, and three (L1-3) for 24 days. All six pretreated animals continue to receive chloroquine injections during MPTP administration and for 10 days following MPTP exposure.
# Detection is done electrochemically on a glassy carbon electrode (Bioanalytical Systems Inc.) at an applied voltage of 0.65 V. Plasma levels of chloroquine are determined by HPLC with UV detection. Samples are deproteinated with 0.2 vol. of 25% trichloroacetic acid followed by centrifugation at 4°C for 30 minutes at 1,000 g. Supernatants are removed, lyophilized overnight and reconstituted with 80 µl of 0.1 M perchloric acid. Samples are analyzed directly using reverse-phase HPLC with a Whatman ODS-3 column (Whatman) and Pellosil C8 guard column (Alltech). The mobile phase for this system is 40% acetonitrile, 0.1 M sodium phosphate (pH 3.0) with 75 mM perchloric acid. Absorption is detected at 343 nm (Bergqvist, Y. et al., Chromat. 221, 2503 (1985)). Tyrosine hydroxylase (TH) activity is assayed by the tritium release method of Nagatsu, T. et al., Analyt. […] Supernatant fluid (50 µl) from brain homogenate (1 g tissue in 20 vol 50 mM Tris, H 7.4) are added to 7 ml glass scintillation vials containing 5 µl 6 DL-6-methyl-5,6,7,8-tetrahydropterine (2.8 mg ml^-1), 5 µl FeSO4 (2.78 mg ml ^-1) and 1 µC of ring labelled [^3H]tyrosine. Mixtures are incubated 30 minutes at 37°C and the reaction terminated by adding 50 µl 3 M Na2CO3, pH 11.6. Toluene/isoamyl alcohol scintillant (5 ml) is then added directly to the vial and the contents mixed for 10 seconds. The aqueous and organic phases are allowed to separate and the ^3H2O extracted into the organic phase determined.
# [12] = cynomolgus monkey, in vivo
# Method: as §5
# Detection is done electrochemically on a glassy carbon electrode (Bioanalytical Systems Inc.) at an applied voltage of 0.65 V. Plasma levels of chloroquine are determined by HPLC with UV detection. Samples are deproteinated with 0.2 vol. of 25% trichloroacetic acid followed by centrifugation at 4°C for 30 minutes at 1,000 g. Supernatants are removed, lyophilized overnight and reconstituted with 80 µl of 0.1 M perchloric acid. Samples are analyzed directly using reverse-phase HPLC with a Whatman ODS-3 column (Whatman) and Pellosil C8 guard column (Alltech). […] Absorption is detected at 343 nm (Bergqvist, Y. et al., Chromat. 221, 2503 (1985)). […] The aqueous and organic phases are allowed to separate and the ^3H2O extracted into the organic phase determined.
# [13] = one week after MPTP 20 mg/kg/h x 4
# [14] = three months after MPTP 20 mg/kg/h x 4
# [15] = long-term chloroquine (24 days) plus MPTP, monkeys L1-3
# [16] = short-term chloroquine (12 days) plus MPTP, monkeys S1-3
structure (smiles),measurement,setting,value
"CN1CC=C(c2ccccc2)CC1 [MPTP, 1-Methyl-4-phenyl-1,2,5,6-tetrahydropyridine]","Vmax of [^3H]DA striatal uptake, % of control",[1]; [13],37 % of control
same,decrease of Vmax of striatal synaptosomal [^3H]DA uptake,[1]; [13],62%
same,Vmax of [^3H]DA uptake,"[1]; one week after MPTP 20 mg/kg/h x 4, control 5540 ± 480",2080 ± 305 cpm[^3H]DA/mg tissue/5 min
same,Km,[1]; striatal synaptosomes of mice one week after MPTP 20 mg/kg/h x 4,0.12 ± 0.02 µM
same,"Vmax of [^3H]DA striatal uptake, % of control",[1]; [14],79 % of control
same,Vmax of [^3H]DA striatal uptake,"[1]; three months after MPTP, control 6238 (± 520)",4928 (± 408) CPM [^3H]DA/mg tissue/5 min
same,association constant K1,"[2]; MPTP 5.7 µM - […], room temperature, one hour, first class of binding sites, 60 min",K1 = 2.32 x 10^5 M^-1
same,total binding capacity (Σn),[2]; beef eye melanin,0.53 µmol/mg melanin
same,number of binding sites n1,[2]; first class of binding sites,n1 = 0.09 µ mole per mg melanin
same,number of binding sites n2,[2]; second class of binding sites,n2 = 0.44 µ mole per mg melanin
same,association constant K2,"[2]; second class of binding sites, 60 min",K2 = 1.22 x 10^3 M^-1
same,mortality,"[3]; 20 mg/kg/h x 4 regimen, read-out: mice that die",~20%
same,mortality,[3]; read-out: animals killed,> 50%
same,lethality,C57 black mice [4],No lethality
same,number of binding sites n1,[5]; first class of binding sites,n1 = 0.08 µ mole per mg melanin
same,association constant K1,"[5]; first class of binding sites, 60 min",K1 = 5.82 x 10^5 M^-1
same,association constant K2,"[5]; second (intermediary) class of binding sites, 60 min",K2 = 1.22 x 10^4 M^-1
same,number of binding sites n2,[5]; second class of binding sites,n2 = 0.05 µ mole per mg melanin
same,number of binding sites n3,[5]; third class of binding sites,n3 = 0.14 µ mole per mg melanin
same,association constant K3,"[5]; third class of binding sites, 60 min",K3 = 7.68 x 10^2 M^-1
same,"striatal DA level, % of control",C57 black mice [6]; 15 months after MPTP 20 mg/kg/h x 4,69 % of control
same,striatal concentration of DOPAC,"C57 black mice [6]; MPTP 20 mg/kg/h x 4, control 0.96 (±0.14)",0.28 (±0.02) µg/g
same,striatal concentration of HVA,"C57 black mice [6]; MPTP 20 mg/kg/h x 4, control 1.38 (±0.05)",0.60 (±0.06) µg/g
same,DA,C57 black mice [6]; mouse striatum one week after MPTP 20 mg/kg/h x 4 i.p.,2.8 ± 0.5 µg/g
same,DA,C57 black mice [6]; mouse striatum one week after MPTP 30 mg/kg/day x 10 i.p.,3.5 ± 0.3 µg/g
same,% Depletion of striatal DA,C57 black mice [6]; [13],74%
same,"HVA, % of control",C57 black mice [6]; [13],43 % of control
same,"striatal DA level, % of control",C57 black mice [6]; [13],28 % of control
same,% Depletion of striatal DA,C57 black mice [6]; one week after MPTP 30 mg/kg/day x 10,67%
same,"HVA, % of control",C57 black mice [6]; [14],80 % of control
same,depletion of striated DA,C57 black mice [6]; [14],34%
same,HVA,"C57 black mice [6]; three months after MPTP, control 1.36 ± 0.11",1.09 ± 0.04 µg/g
same,DOPAC,"C57 black mice [6]; three months after MPTP, controls 1.53 ±0.09 µg/g",1.03 ± 0.03 µg\g
same,reduction of Bmax of [^3H]mazindol binding sites,[7],44%
same,Bmax of [^3H]mazindol binding,[7]; control 361,201 pmol/g tissue
same,behavioural effect of MPTP,squirrel monkeys,profoundly akinetic
same,Neurological Status: Spontaneous Movement,"[8]; MPTP alone 0.35 mg per kg i.v. daily for four days, individual monkeys",1
same,Neurological Status: Total (x 5.26),"[8]; MPTP alone, individual monkeys",16 and 29 and 8
same,Neurological Status: Reflexes,"[8]; MPTP alone, individual monkeys",0.5 and 1.5 and 0
same,Neurological Status: Tone,"[8]; MPTP alone, individual monkeys",0.5 (2×) and 2
same,Neurological Status: Tremor,"[8]; MPTP alone, individual monkeys",1 (2×) and 0
same,fine granular argyrophilic debris in striata,"C57 black mice [9]; MPTP 20 mg/kg/h x 4, killed one day later",Three of three mice
C#CCN(C)Cc1ccccc1 [pargyline],evidence of striatal terminal degeneration,"C57 black mice [9]; pretreated with 25 mg/kg of pargyline, then MPTP 20 mg/kg/h x 4",None of three mice
"NCCc1ccc(O)c(O)c1 [[^3H]DA, dopamine]",Km,[1]; striatal synaptosomes of control mice,0.14 ± 0.02 µM
CCN(CC)CCCC(C)Nc1ccnc2cc(Cl)ccc12 (stereo not shown) [Chloroquine],CAUDATE HVA,[10],8.0 nmol per g tissue and 10.5 nmol per g tissue and 9.2 nmol per g tissue
same,PUTAMEN HVA,[10],10.1 nmol per g tissue and 8.6 nmol per g tissue and 9.8 nmol per g tissue
same,CAUDATE TH (% control),[11],14.0 % control and 18.7 % control and 22.6 % control
same,PUTAMEN TH (% control),[11],20.0 % control and 23.3 % control and 29.8 % control
same,Chloroquine level relative to that in other monkeys monitored,[12],* Chloroquine level is 36% of that in other monkeys monitored.
same,Chloroquine in plasma,"[12]; im, 4 mg/kg",300 ng ml^-
same,protection from MPTP-induced parkinsonian clinical symptoms,"[8]; chloroquine 4 mg per kg i.m. pretreatment, 12 or 24 days",Five of the six monkeys
same,Neurological Status: Reflexes,[8]; [15],1 and 2
same,Neurological Status: Tone,[8]; [15],1.5 and 1 and 2
same,Neurological Status: Spontaneous Movement,"[8]; short-term chloroquine 4 mg per kg i.m., pretreated 12 days, plus MPTP, monkeys S1-3",3
same,Neurological Status: Total (x 5.26),[8]; [16],47 and 58 and 42
same,Neurological Status: Reflexes,[8]; [16],1 and 2
same,Neurological Status: Tone,[8]; [16],2 and 1
same,Neurological Status: Tremor,[8]; [16],3 and 4

# — EP0434750B1 (priority 1988, dated 1990)
